According to patent publication US20150030561A1, “Use of CXCR4 Antagonists” (GENZYME CORP., priority 2011, published 2015):
Where two headings read alike, the source gives them in different places.

Key:
[1] = literature (Liles 2003; DiPersio 2009); cited from earlier work
[2] = tested on: patients with myelokathexis attributable to mutations of CXCR4
Description: […] intrapatient escalating dose levels, 20 mcg/kg, 40 mcg/kg, 80 mcg/kg, and 240 mcg/kg were exam in d. The subjects were patients at the University of Washington General Clinical Research Center for up to 10 days; the study requires the subject to be available for up to 14 days.
Complete blood counts were determined at 1, 3, 6, 9 and 24 hours with an automated counter and leukocyte differential counts confirmed manually. CD34^+ cells and lymphocyte subtypes were measured by FACS before and 6 hours after the 0.08 mg/kg dose.

## c1cc(CN2CCCNCCNCCCNCC2)ccc1CN1CCCNCCNCCCNCC1 [plerixafor]
[1]
  effect on circulating CD34+ cells: increases circulating CD34^+ cells
  leukocyte effect of subcutaneous administration: dose-dependent leukocytosis
[2]; 10 day testing period, except one patient with severe iron deficiency anemia
  hematocrit, hemoglobin and platelet counts: stable
[2]; all 6 patients
  leukocyte response: prompt leukocytosis
[2]; another patient, 0.24 mg/kg dose
  blood neutrophils 24 hours after dose: 2e+09 L⁻¹
[2]; controls (normal subjects similarly treated)
  fold increase, peak neutrophil response: 4.4 fold
[2]; one patient, 0.16 mg/kg dose
  blood neutrophils 24 hours after dose: greater than 2.0 ×10^9/L
[2]; patient group, single s.c. doses 0.02 to 0.24 mg/kg, mean baseline 0.4±0.1×10^9/L
  peak blood neutrophils (group mean of highest observed values): 4.5±0.78 ×10^9/L
[2]; patients
  absolute lymphocyte count increase from baseline to peak levels: approximately 14 fold
  absolute lymphocyte counts versus normal levels: transiently reached normal levels
  fold increase, peak neutrophil response: 8.2 fold
[2]; patients, 0.08 mg/kg dose, FACS before and 6 hours after
  CD34+ cells increase: ~6 fold
[2]; patients, s.c. single doses
  effect on neutropenia and lymphocytopenia: transiently correct neutropenia and lymphocytopenia
